Measurements published in PMC6249039 (Journal of medicinal chemistry, 2018).

Key:
[1] = cited from earlier work
[2] = system: influenza; type: cell-based
[3] = molecular target: HIV IN (Human immunodeficiency virus type 1 group M subtype B, UniProt P04585); type: biochemical; details: 200 μM
[4] = molecular target: T1, HDAC-6 (Homo sapiens, UniProt Q9UBN7); experiment: Cross-inhibition screen, HDAC-6; type: biochemical; details: 200 μM
T1 sequence (Q9UBN7 1-1215): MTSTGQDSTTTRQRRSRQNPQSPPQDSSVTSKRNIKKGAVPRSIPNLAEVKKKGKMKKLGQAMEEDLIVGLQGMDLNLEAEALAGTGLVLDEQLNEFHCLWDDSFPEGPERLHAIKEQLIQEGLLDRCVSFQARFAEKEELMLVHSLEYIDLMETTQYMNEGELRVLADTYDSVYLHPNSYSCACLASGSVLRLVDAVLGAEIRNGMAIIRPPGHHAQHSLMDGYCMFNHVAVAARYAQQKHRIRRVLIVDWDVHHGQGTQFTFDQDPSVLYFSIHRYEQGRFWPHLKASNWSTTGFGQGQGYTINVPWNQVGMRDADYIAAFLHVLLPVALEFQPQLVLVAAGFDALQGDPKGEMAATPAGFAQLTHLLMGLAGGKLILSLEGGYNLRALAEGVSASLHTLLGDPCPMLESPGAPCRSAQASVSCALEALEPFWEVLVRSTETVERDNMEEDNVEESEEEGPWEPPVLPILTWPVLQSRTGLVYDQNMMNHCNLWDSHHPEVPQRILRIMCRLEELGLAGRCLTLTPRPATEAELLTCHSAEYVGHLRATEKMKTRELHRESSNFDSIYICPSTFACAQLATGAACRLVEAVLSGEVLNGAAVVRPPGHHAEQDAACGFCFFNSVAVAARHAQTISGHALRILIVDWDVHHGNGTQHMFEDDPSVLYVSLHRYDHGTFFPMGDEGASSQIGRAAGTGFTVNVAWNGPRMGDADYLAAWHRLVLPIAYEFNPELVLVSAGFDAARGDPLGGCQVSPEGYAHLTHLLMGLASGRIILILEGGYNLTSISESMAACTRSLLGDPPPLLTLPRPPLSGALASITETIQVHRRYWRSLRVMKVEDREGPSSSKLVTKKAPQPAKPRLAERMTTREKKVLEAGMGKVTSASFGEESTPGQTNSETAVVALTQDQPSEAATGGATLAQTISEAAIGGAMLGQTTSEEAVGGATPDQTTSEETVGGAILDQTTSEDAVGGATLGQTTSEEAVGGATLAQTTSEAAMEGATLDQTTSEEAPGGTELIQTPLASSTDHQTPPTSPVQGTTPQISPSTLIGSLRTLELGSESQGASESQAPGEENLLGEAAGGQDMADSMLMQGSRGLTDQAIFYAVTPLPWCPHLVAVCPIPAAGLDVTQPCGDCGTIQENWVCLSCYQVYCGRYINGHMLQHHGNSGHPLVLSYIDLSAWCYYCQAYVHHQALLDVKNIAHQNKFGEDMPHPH

[5] = molecular target: human carbonic anhydrase II (hCAII) (Homo sapiens, UniProt P00918); experiment: Cross-inhibition screen, human carbonic anhydrase II; type: biochemical; details: 200 μM

Compound | Antiviral activity in cell-based assays [2] | also measured
O=C(O)c1cccc(=O)n1O [Compound 5] | – | pKa reported ([1]; N-hydroxy donor oxygen): 7.51
O=c1cc[nH]c(-c2nnn[nH]2)c1O [Compound 27] | little antiviral activity | –
Cc1cc(C(=O)O)c(O)c(=O)[nH]1 [Compound 18] | little antiviral activity | –
O=c1c(O)ccccc1O [Compound 32, α-hydroxytropolone] | little antiviral activity | –
Cc1cc(=S)c(O)c(C(=O)O)o1 [Compound 22] | little antiviral activity | –
Cc1cc(O)c(=O)c(O)cc1C(=O)O [Compound 33, 5-Methyl-2,7-dihydroxytropolone-4-carboxylic acid] | little antiviral activity | –
Cc1cc(=O)c(O)c(C(=O)O)[nH]1 [Compound 17, 3-Hydroxy-6-methyl-4-oxo-1,4-dihydropyridine-2-carboxylic acid] | little antiviral activity | –
O=C(O)c1cccc(O)c1O [Compound 7] | – | pKa reported, first value ([1]; phenolic oxygen): 10.30; pKa reported, second value ([1]; phenolic oxygen): 13.48
Cc1cc(=O)c(O)c(C(=O)O)o1 [Compound 1, 3-Hydroxy-6-methyl-4-oxo-4H-pyran-2-carboxylic acid] | little antiviral activity | Percent inhibition, HIV IN 3'-processing activity [3]: no inhibition; Percent inhibition, HDAC-6 [4]: no inhibition; Percent inhibition, hCAII [5]: no inhibition
O=C(O)c1occc(=O)c1O [Compound 3] | little antiviral activity | –
